Target: T1, hFXR (Homo sapiens, UniProt Q96RI1)
T1 construct: expressed in transfected cells; host or cells: CV-1 cells
T1 sequence (Q96RI1 1-486): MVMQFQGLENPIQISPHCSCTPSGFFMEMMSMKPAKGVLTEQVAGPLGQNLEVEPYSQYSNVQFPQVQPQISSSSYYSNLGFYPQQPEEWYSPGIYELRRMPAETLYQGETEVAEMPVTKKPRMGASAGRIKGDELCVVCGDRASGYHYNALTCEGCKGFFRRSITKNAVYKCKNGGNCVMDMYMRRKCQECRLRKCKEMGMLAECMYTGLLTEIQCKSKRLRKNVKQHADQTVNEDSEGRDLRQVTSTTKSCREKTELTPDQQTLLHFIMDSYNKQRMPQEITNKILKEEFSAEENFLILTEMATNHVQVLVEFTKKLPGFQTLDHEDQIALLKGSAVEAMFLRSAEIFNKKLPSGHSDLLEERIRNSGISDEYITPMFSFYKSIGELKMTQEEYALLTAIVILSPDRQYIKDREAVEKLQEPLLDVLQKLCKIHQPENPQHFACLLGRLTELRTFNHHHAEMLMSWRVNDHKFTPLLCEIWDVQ
T1 sequence (P19793 1-462 partner): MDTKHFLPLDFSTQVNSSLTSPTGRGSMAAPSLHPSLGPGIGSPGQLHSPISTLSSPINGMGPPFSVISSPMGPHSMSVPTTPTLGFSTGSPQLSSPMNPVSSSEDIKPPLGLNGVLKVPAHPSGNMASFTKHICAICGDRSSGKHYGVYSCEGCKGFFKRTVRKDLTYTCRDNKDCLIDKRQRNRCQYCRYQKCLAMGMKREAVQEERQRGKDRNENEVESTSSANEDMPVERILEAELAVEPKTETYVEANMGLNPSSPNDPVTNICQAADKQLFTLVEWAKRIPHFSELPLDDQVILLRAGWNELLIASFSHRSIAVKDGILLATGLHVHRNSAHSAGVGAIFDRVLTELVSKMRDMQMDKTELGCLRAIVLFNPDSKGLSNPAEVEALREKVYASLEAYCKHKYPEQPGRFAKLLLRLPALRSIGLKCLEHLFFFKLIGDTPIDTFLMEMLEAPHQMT
Assay: In Vitro FXR Assay (TK): TK-ECRE-luc reporter in transfected CV-1 cells
Assay type: cell-based
Details: 18 hrs incubation, luminescence
Protocol: Example B-1: In Vitro FXR Assay (TK)
CV-1 cells were seeded at a density of 2,000,000 cells in a T175 flask with DMEM+10% charcoal double-stripped FBS and incubated at 37° C. in 5% CO2 for 18 h (O/N).
After 18 h of incubation, the medium in the T175 flask was changed with fresh DMEM+10% charcoal super-stripped serum. In a polypropylene tube, 2500 μL OptiMEM (Life Technologies, Cat #31985-062) was combined with expression plasmids for hFXR, hRXR, TK-ECRE-luc and pCMX-YFP. The tube was then briefly vortexed and incubated at room temperature for 5 minutes. Transfection reagent (X-tremeGENE HP from Roche, Cat #06 366 236 001) was added to the OptiMEM/plasmid mixture vortexed and incubated at room temperature for 20 minutes. Following incubation, the transfection reagent/DNA mixture complex was added to cells in the T175 flask and the cells were incubated at 37° C. in 5% CO2 for 18 h (O/N).
Compounds were serially diluted in DMSO and added to transfected CV-1 cells. The cells were then incubated for 18 hrs. The next day cells were lysed and examined for luminescence.

Compound	EC50 [nM]
COc1ccc([C@H]2CC[C@H](CN(c3cc(-c4cnc(C5CC5)s4)ccn3)C(=O)[C@H]3CC[C@H](OC(=O)N4CCN(C)CC4)CC3)CC2)cc1Cl [Compound 2.08, trans-4-(((trans-4-(3-Chloro-4-methoxyphenyl)cyclohexyl)methyl)(4-(2-cyclopropylthiazol-5-yl)pyridin-2-yl)carbamoyl)cyclohexyl 4-methylpiperazine-1-carboxylate]	≤ 50
COC(=O)N[C@H]1CC[C@H](C(=O)N(C[C@H]2CC[C@H](c3ccc(OC)c(C)c3)CC2)c2cccc(-c3cnn(C(C)C)c3)c2)CC1 [Compound 6, Methyl (trans-4-((3-(1-isopropyl-1H-pyrazol-4-yl)phenyl)((trans-4-(4-methoxy-3-methylphenyl)cyclohexyl)methyl)carbamoyl)cyclohexyl)carbamate]	≤ 50
COc1ccc(C23CCC(CN(c4cc(-c5cnn(C(C)C)c5)ccn4)C(=O)[C@H]4CC[C@H](NC(=O)CO)CC4)(CC2)CC3)cc1C [Compound 9.02, trans-4-(2-Hydroxyacetamido)-N-(4-(1-isopropyl-1H-pyrazol-4-yl)pyridin-2-yl)-N-((4-(4-methoxy-3-methylphenyl)bicyclo[2.2.2]octan-1-yl)methyl)cyclohexanecarboxamide]	≤ 50
COc1ncc([C@H]2CC[C@H](CN(c3cc(-c4coc(C5CC5)n4)ccn3)C(=O)[C@H]3CC[C@H](OC(=O)N4CCN(C)CC4)CC3)CC2)cc1Cl [Compound 1.07, trans-4-((((trans)-4-(5-Chloro-6-methoxypyridin-3-yl)cyclohexyl)methyl)(4-(2-cyclopropyloxazol-4-yl)pyridin-2-yl)carbamoyl)cyclohexyl 4-methylpiperazine-1-carboxylate]	≤ 50
COc1ccc([C@H]2CC[C@H](CN(c3cc(-c4cnc(C5CC5)s4)ccn3)C(=O)[C@H]3CC[C@H](OC(=O)NCC(C)(C)O)CC3)CC2)cc1C [Compound 2, trans-4-((4-(2-Cyclopropylthiazol-5-yl)pyridin-2-yl)(((trans)-4-(4-methoxy-3-methylphenyl)cyclohexyl)methyl)carbamoyl)cyclohexyl (2-hydroxy-2-methylpropyl)carbamate]	≤ 50
COc1ccc(C23CCC(CN(c4cc(-c5cnc(C6CC6)s5)ccn4)C(=O)[C@H]4CC[C@H](OC(=O)N5CC(CO)C5)CC4)(CC2)CC3)cc1C [Compound 4.28, 4-((4-(2-Cyclopropylthiazol-5-yl)pyridin-2-yl)((4-(4-methoxy-3-methylphenyl)bicyclo[2.2.2]octan-1-yl)methyl)carbamoyl)(trans-cyclohexyl) 3-(hydroxymethyl)azetidine-1-carboxylate]	≤ 50

More lines, now with the values ahead:

EC50 [nM]	Compound
50 to 1000	COc1ccc([C@H]2CC[C@H](CN(c3cccc(-c4cnn(C(C)C)c4)c3)C(=O)[C@H]3CC[C@H](NC(=O)CCCO)CC3)CC2)cc1C [Compound 14, trans-4-(4-Hydroxybutanamido)-N-(3-(1-isopropyl-1H-pyrazol-4-yl)phenyl)-N-((trans-4-(4-methoxy-3-methylphenyl)cyclohexyl)methyl)cyclohexanecarboxamide]
≤ 50	COc1ccc(C23CCC(CN(c4cc(-c5coc(C(C)C)n5)ccn4)C(=O)[C@H]4CC[C@H](OC(=O)NCCCO)CC4)(CC2)CC3)cc1C [Compound 23.02, 4-((4-(2-Isopropyloxazol-4-yl)pyridin-2-yl)((4-(4-methoxy-3-methylphenyl)bicyclo[2.2.2]octan-1-yl)methyl)carbamoyl)(trans-cyclohexyl)(3-hydroxypropyl)carbamate]
≤ 50	COc1ccc(C23CCC(CN(c4cccc(-c5cnn(C(C)C)c5)c4F)C(=O)[C@H]4CC[C@H](OC(=O)N5CC(O)C5)CC4)(CC2)CC3)cc1C [Compound 25.04, 4-((2-Fluoro-3-(1-isopropyl-1H-pyrazol-4-yl)phenyl)((4-(4-methoxy-3-methylphenyl)bicyclo[2.2.2]octan-1-yl)methyl)carbamoyl)cyclohexyl trans-3-hydroxyazetidine-1-carboxylate]

Reference: patent US20220056019A1, “FARNESOID X RECEPTOR AGONISTS AND USES THEREOF” (Metacrine, Inc., priority 2018, published 2022)
